Measurements from patent publication US20250163104A1, “MACROCYCLIC IMMUNOMODULATORS” (priority 2021, published 2025).
Where a SMILES comes first, the peptide text is derived from it. Bridges are numbered along the chain shown (N, C = ends). [ ]: non-standard residue; d: D form. The star is where a group is joined. Phe(4-COOH) = N[C@@H](Cc1ccc(C(=O)O)cc1)C(=O)O; Bip = N[C@@H](Cc1ccc(-c2ccccc2)cc1)C(=O)O; Cha = N[C@@H](CC1CCCCC1)C(=O)O; Carboxymethyl = O=C(O)C*; Orn = NCCC[C@H](N)C(=O)O; Dab = NCC[C@H](N)C(=O)O; Dap = NC[C@H](N)C(=O)O

Target: T1, human PD-1 / PD-L1-Ig binding on Jurkat cell line over-expressing human PD-1 (Jurkat-PD-1) (Homo sapiens, UniProt Q15116)
T1 construct: expressed in transfected cells; host or cells: Jurkat
Experiment: Jurkat-PD-1 Cell Binding High-Content Screening Assay (CBA)
Format: cell-based
Conditions: Jurkat HPD1_PDL1 IC50, Jurkat-PD-1 cells, PE-labeled PD-L1-Ig 20 nM final
Procedure, shortened: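 Compounds were preincubated with Jurkat-hPD-1 cells in DMEM plus 10% fetal calf serum for 2 h at 37° C. Phycoerythrin-labeled PD-L1-Ig (20 nM final) was then added for 1 hour. Cells were fixed in 4% paraformaldehyde with Hoechst 33342, and bound fluorescence was quantified by high-content imaging.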

T1 sequence (Q15116 25-288): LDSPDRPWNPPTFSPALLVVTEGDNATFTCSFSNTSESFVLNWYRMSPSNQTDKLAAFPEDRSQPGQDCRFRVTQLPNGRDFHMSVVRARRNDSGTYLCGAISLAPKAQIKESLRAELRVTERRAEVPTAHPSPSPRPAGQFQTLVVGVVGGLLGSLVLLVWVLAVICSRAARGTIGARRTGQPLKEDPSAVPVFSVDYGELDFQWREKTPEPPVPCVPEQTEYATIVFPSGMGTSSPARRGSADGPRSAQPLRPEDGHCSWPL

Structure (SMILES)	IC50 [nM]
CC(C)C[C@H]1NC(=O)[C@H](CCCN)NC(=O)[C@H](CN)NC(=O)[C@H](Cc2ccc(-c3ccccc3)cc2)NC(=O)[C@H](C(C)C)NC(=O)[C@H](Cc2c[nH]c3ccccc23)NC(=O)[C@H](CC(=O)O)NC(=O)[C@H](Cc2ccc(OCC(=O)O)cc2)NC(=O)[C@H](Cc2ccncc2)NC(=O)CSC[C@@H](C(=O)N[C@@H](C)C(N)=O)NC(=O)[C@H]([C@@H](C)O)NC(=O)[C@H](C(C)C)NC(=O)[C@H](CC2CCCCC2)NC(=O)[C@H](CCN)NC1=O [Compound 1372]	12.6
CC(C)C[C@H]1NC(=O)[C@H](CCCN)NC(=O)[C@H](CCCCN)NC(=O)[C@H](Cc2ccc(-c3ccccc3)cc2)NC(=O)[C@H](C(C)C)NC(=O)[C@H](Cc2c[nH]c3ccccc23)NC(=O)[C@H](CC(=O)O)NC(=O)[C@H](Cc2ccc(OCC(=O)O)cc2)NC(=O)[C@H](Cc2ccncc2)NC(=O)CSC[C@@H](C(=O)N[C@@H](C)C(N)=O)NC(=O)[C@H]([C@@H](C)O)NC(=O)[C@H](C(C)C)NC(=O)[C@H](CC2CCCCC2)NC(=O)[C@H](CCN)NC1=O [Compound 1373]	11.1

Same assay, conditions: Jurkat-PD-1 cells, PE-labeled PD-L1-Ig 20 nM final; read-out: Jurkat HPD1_PDL1 IC50

Structure (SMILES)	IC50 [nM]
CC(C)C[C@H]1NC(=O)[C@H](CCCN)NC(=O)[C@H](CCCN)NC(=O)[C@H](Cc2ccc(-c3ccccc3)cc2)NC(=O)[C@H](C(C)C)NC(=O)[C@H](Cc2c[nH]c3ccccc23)NC(=O)[C@H](CC(=O)O)NC(=O)[C@H](Cc2ccc(OCC(=O)O)cc2)NC(=O)[C@H](CN)NC(=O)CSC[C@@H](C(=O)N[C@@H](C)C(N)=O)NC(=O)[C@H]([C@@H](C)O)NC(=O)[C@H](C(C)C)NC(=O)[C@H](CC2CCCCC2)NC(=O)[C@H](CCN)NC1=O [Compound 1374]	9.8
CC(C)C[C@H]1NC(=O)[C@H](CCCN)NC(=O)[C@H](CCCCN)NC(=O)[C@H](Cc2ccc(-c3ccccc3)cc2)NC(=O)[C@H](C(C)C)NC(=O)[C@H](Cc2c[nH]c3ccccc23)NC(=O)[C@H](CC(=O)O)NC(=O)[C@H](Cc2ccc(OCC(=O)O)cc2)NC(=O)[C@H](CN)NC(=O)CSC[C@@H](C(=O)N[C@@H](C)C(N)=O)NC(=O)[C@H]([C@@H](C)O)NC(=O)[C@H](C(C)C)NC(=O)[C@H](CC2CCCCC2)NC(=O)[C@H](CCN)NC1=O [Compound 1377] ({CH2CO}-[Dap]Y(Carboxymethyl)DWV[Bip]K[Orn][dL][Dab][Cha]VTCA-NH2; thioether N-14)	8.9
CC(C)C[C@H]1NC(=O)[C@H](CCCN)NC(=O)[C@H](CCCN)NC(=O)[C@H](Cc2ccc(-c3ccccc3)cc2)NC(=O)[C@H](C(C)C)NC(=O)[C@H](Cc2c[nH]c3ccccc23)NC(=O)[C@H](CC(=O)O)NC(=O)[C@H](Cc2ccc(O)cc2)NC(=O)[C@H](CC(N)=O)NC(=O)CSC[C@@H](C(=O)N[C@@H](C)C(N)=O)NC(=O)[C@H]([C@@H](C)O)NC(=O)[C@H](C(C)C)NC(=O)[C@H](CC2CCCCC2)NC(=O)[C@H](CCN)NC1=O [Compound 1378] ({CH2CO}-NYDWV[Bip][Orn][Orn][dL][Dab][Cha]VTCA-NH2; thioether N-14)	13.7
CC(C)C[C@H]1NC(=O)[C@H](CCCN)NC(=O)[C@H](CCCCN)NC(=O)[C@H](Cc2ccc(-c3ccccc3)cc2)NC(=O)[C@H](C(C)C)NC(=O)[C@H](Cc2c[nH]c3ccccc23)NC(=O)[C@H](CC(=O)O)NC(=O)[C@H](Cc2ccc(O)cc2)NC(=O)[C@H](CC(N)=O)NC(=O)CSC[C@@H](C(=O)N[C@@H](C)C(N)=O)NC(=O)[C@H]([C@@H](C)O)NC(=O)[C@H](C(C)C)NC(=O)[C@H](CC2CCCCC2)NC(=O)[C@H](CCN)NC1=O [Compound 1381] ({CH2CO}-NYDWV[Bip]K[Orn][dL][Dab][Cha]VTCA-NH2; thioether N-14)	13.3
CC(C)C[C@H]1NC(=O)[C@H](CCCN)NC(=O)[C@H](CCCN)NC(=O)[C@H](Cc2ccc(-c3ccccc3)cc2)NC(=O)[C@H](C(C)C)NC(=O)[C@H](Cc2c[nH]c3ccccc23)NC(=O)[C@H](CC(=O)O)NC(=O)[C@H](Cc2ccc(C(=O)O)cc2)NC(=O)[C@H](Cc2ccc(OCC(=O)O)cc2)NC(=O)CSC[C@@H](C(=O)N[C@@H](C)C(N)=O)NC(=O)[C@H]([C@@H](C)O)NC(=O)[C@H](C(C)C)NC(=O)[C@H](CC2CCCCC2)NC(=O)[C@H](CCN)NC1=O [Compound 1382] ({CH2CO}-Y(Carboxymethyl)[Phe(4-COOH)]DWV[Bip][Orn][Orn][dL][Dab][Cha]VTCA-NH2; thioether N-14)	14

Now from value to compound:

IC50 [nM]	Structure (SMILES)
33	CC(C)C[C@H]1NC(=O)[C@H](CCCN)NC(=O)[C@H](CCN)NC(=O)[C@H](Cc2ccc(-c3ccccc3)cc2)NC(=O)[C@H](C(C)C)NC(=O)[C@H](Cc2c[nH]c3ccccc23)NC(=O)[C@H](CC(=O)O)NC(=O)[C@H](Cc2ccc(O)cc2)NC(=O)[C@H](CC(N)=O)NC(=O)CSC[C@@H](C(=O)N[C@@H](C)C(N)=O)NC(=O)[C@H]([C@@H](C)O)NC(=O)[C@H](C(C)C)NC(=O)[C@H](CC2CCCCC2)NC(=O)[C@H](CCN)NC1=O [Compound 1379]
19.1	CC(C)C[C@H]1NC(=O)[C@H](CCCN)NC(=O)[C@H](CCN)NC(=O)[C@H](Cc2ccc(-c3ccccc3)cc2)NC(=O)[C@H](C(C)C)NC(=O)[C@H](Cc2c[nH]c3ccccc23)NC(=O)[C@H](CC(=O)O)NC(=O)[C@H](Cc2ccc(C(=O)O)cc2)NC(=O)[C@H](Cc2ccc(OCC(=O)O)cc2)NC(=O)CSC[C@@H](C(=O)N[C@@H](C)C(N)=O)NC(=O)[C@H]([C@@H](C)O)NC(=O)[C@H](C(C)C)NC(=O)[C@H](CC2CCCCC2)NC(=O)[C@H](CCN)NC1=O [Compound 1383]
16.8	CC(C)C[C@H]1NC(=O)[C@H](CCCN)NC(=O)[C@H](CN)NC(=O)[C@H](Cc2ccc(-c3ccccc3)cc2)NC(=O)[C@H](C(C)C)NC(=O)[C@H](Cc2c[nH]c3ccccc23)NC(=O)[C@H](CC(=O)O)NC(=O)[C@H](Cc2ccc(O)cc2)NC(=O)[C@H](CC(N)=O)NC(=O)CSC[C@@H](C(=O)N[C@@H](C)C(N)=O)NC(=O)[C@H]([C@@H](C)O)NC(=O)[C@H](C(C)C)NC(=O)[C@H](CC2CCCCC2)NC(=O)[C@H](CCN)NC1=O [Compound 1380]
11	CC(C)C[C@H]1NC(=O)[C@H](CCCN)NC(=O)[C@H](CN)NC(=O)[C@H](Cc2ccc(-c3ccccc3)cc2)NC(=O)[C@H](C(C)C)NC(=O)[C@H](Cc2c[nH]c3ccccc23)NC(=O)[C@H](CC(=O)O)NC(=O)[C@H](Cc2ccc(C(=O)O)cc2)NC(=O)[C@H](Cc2ccc(OCC(=O)O)cc2)NC(=O)CSC[C@@H](C(=O)N[C@@H](C)C(N)=O)NC(=O)[C@H]([C@@H](C)O)NC(=O)[C@H](C(C)C)NC(=O)[C@H](CC2CCCCC2)NC(=O)[C@H](CCN)NC1=O [Compound 1384]
7.2	CC(C)C[C@H]1NC(=O)[C@H](CCCN)NC(=O)[C@H](CN)NC(=O)[C@H](Cc2ccc(-c3ccccc3)cc2)NC(=O)[C@H](C(C)C)NC(=O)[C@H](Cc2c[nH]c3ccccc23)NC(=O)[C@H](CC(=O)O)NC(=O)[C@H](Cc2ccc(OCC(=O)O)cc2)NC(=O)[C@H](CN)NC(=O)CSC[C@@H](C(=O)N[C@@H](C)C(N)=O)NC(=O)[C@H]([C@@H](C)O)NC(=O)[C@H](C(C)C)NC(=O)[C@H](CC2CCCCC2)NC(=O)[C@H](CCN)NC1=O [Compound 1376]
